Source: PubChem BioAssay AID1963836 (Molecular Pharmacology Branch, DTP, NCI, 2024)

System: 857933-349-R-J2-PDC complex spheroid viability
Assay: Anticancer human tumor 857933-349-R-J2-PDC patient-derived colon adenocarcinoma cell line growth inhibition [POLQ]
Details: for IC50: curve of first compound; for viability, T/C: stronger effect = lower value
In short: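 Growth inhibition in 3D: complex spheroids (tumor PDC, HUVEC, MSC) treated with POLQ inhibitor combinations; where Cmax unknown, highest tested concentration 10 microM, except SN-38 at 1 microM.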

[1] = second compound 0.0316 µM, first compound 0.0316 µM
[2] = second compound 0.0316 µM, first compound 0.1 µM
[3] = second compound 0.0316 µM, first compound 0.316 µM
[4] = second compound 0.0316 µM, first compound 1 µM
[5] = second compound 0.1 µM, first compound 0.0316 µM
[6] = second compound 0.1 µM, first compound 0.1 µM
[7] = second compound 0.1 µM, first compound 0.316 µM
[8] = second compound 0.1 µM, first compound 1 µM
[9] = second compound 0.316 µM, first compound 0.0316 µM
[10] = second compound 0.316 µM, first compound 0.1 µM
[11] = second compound 0.316 µM, first compound 0.316 µM
[12] = second compound 0.316 µM, first compound 1 µM
[13] = second compound 1 µM, first compound 0.0316 µM
[14] = second compound 1 µM, first compound 0.1 µM
[15] = second compound 1 µM, first compound 0.316 µM
[16] = second compound 1 µM, first compound 1 µM
[17] = second compound 3.16 µM, first compound 0.0316 µM
[18] = second compound 3.16 µM, first compound 0.1 µM
[19] = second compound 3.16 µM, first compound 0.316 µM
[20] = second compound 3.16 µM, first compound 1 µM
[21] = second compound 10 µM, first compound 0.0316 µM
[22] = second compound 10 µM, first compound 0.1 µM
[23] = second compound 10 µM, first compound 0.316 µM
[24] = second compound 10 µM, first compound 1 µM
[25] = second compound 0.0316 µM, first compound 0.00316 µM
[26] = second compound 0.0316 µM, first compound 0.01 µM
[27] = second compound 0.1 µM, first compound 0.00316 µM
[28] = second compound 0.1 µM, first compound 0.01 µM
[29] = second compound 0.316 µM, first compound 0.00316 µM
[30] = second compound 0.316 µM, first compound 0.01 µM
[31] = second compound 1 µM, first compound 0.00316 µM
[32] = second compound 1 µM, first compound 0.01 µM
[33] = second compound 3.16 µM, first compound 0.00316 µM
[34] = second compound 3.16 µM, first compound 0.01 µM
[35] = second compound 10 µM, first compound 0.00316 µM
[36] = second compound 10 µM, first compound 0.01 µM
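Further: spheroids exposed to compounds for seven days before readout.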

CNCc1ccc(-c2[nH]c3cc(F)cc4c3c2CCNC4=O)cc1 + Cc1cccc(N(C)C(=O)C2C(O)CCN2c2nc(C)cc(C(F)(F)F)c2C#N)c1
IC50 (second compound 0.0316 µM): > 10 µM
IC50 (second compound 0.1 µM): > 10 µM
IC50 (second compound 0.316 µM): > 10 µM
IC50 (second compound 1 µM): > 10 µM
IC50 (second compound 3.16 µM): > 10 µM
IC50 (second compound 10 µM): > 10 µM
viability, T/C [1]: 98.9%
viability, T/C [2]: 111%
viability, T/C [3]: 96.3%
viability, T/C [4]: 99.2%
viability, T/C (second compound 0.0316 µM, first compound 3.16 µM): 78.9%
viability, T/C (second compound 0.0316 µM, first compound 10 µM): 99.7%
viability, T/C [5]: 103%
viability, T/C [6]: 90.7%
viability, T/C [7]: 90.7%
viability, T/C [8]: 76.4%
viability, T/C (second compound 0.1 µM, first compound 3.16 µM): 102%
viability, T/C (second compound 0.1 µM, first compound 10 µM): 104%
viability, T/C [9]: 97.3%
viability, T/C [10]: 104%
viability, T/C [11]: 108%
viability, T/C [12]: 95.5%
viability, T/C (second compound 0.316 µM, first compound 3.16 µM): 103%
viability, T/C (second compound 0.316 µM, first compound 10 µM): 89.5%
viability, T/C [13]: 120%
viability, T/C [14]: 98.5%
viability, T/C [15]: 90.7%
viability, T/C [16]: 86.5%
viability, T/C (second compound 1 µM, first compound 3.16 µM): 104%
viability, T/C (second compound 1 µM, first compound 10 µM): 79.3%
viability, T/C [17]: 88.7%
viability, T/C [18]: 112%
viability, T/C [19]: 95.7%
viability, T/C [20]: 105%
viability, T/C (second compound 3.16 µM, first compound 3.16 µM): 95.4%
viability, T/C (second compound 3.16 µM, first compound 10 µM): 80.5%
viability, T/C [21]: 102%
viability, T/C [22]: 106%
viability, T/C [23]: 117%
viability, T/C [24]: 68.4%
viability, T/C (second compound 10 µM, first compound 3.16 µM): 116%
viability, T/C (second compound 10 µM, first compound 10 µM): 86.3%

COc1cccc(OCCCN)c1-c1cc(Nc2cnc(C#N)cn2)n[nH]1 + Cc1cccc(N(C)C(=O)C2C(O)CCN2c2nc(C)cc(C(F)(F)F)c2C#N)c1
IC50 (second compound 0.0316 µM): 0.763 µM
IC50 (second compound 0.1 µM): > 1 µM
IC50 (second compound 0.316 µM): > 1 µM
IC50 (second compound 1 µM): > 1 µM
IC50 (second compound 3.16 µM): 0.511 µM
IC50 (second compound 10 µM): > 1 µM
viability, T/C [25]: 96.2%
viability, T/C [26]: 94.5%
viability, T/C [1]: 97%
viability, T/C [2]: 86.9%
viability, T/C [3]: 64.6%
viability, T/C [4]: 45.5%
viability, T/C [27]: 105%
viability, T/C [28]: 84.2%
viability, T/C [5]: 89.2%
viability, T/C [6]: 73%
viability, T/C [7]: 66.3%
viability, T/C [8]: 50.7%
viability, T/C [29]: 102%
viability, T/C [30]: 99.8%
viability, T/C [9]: 90.9%
viability, T/C [10]: 56.8%
viability, T/C [11]: 61%
viability, T/C [12]: 55.5%
viability, T/C [31]: 110%
viability, T/C [32]: 96.3%
viability, T/C [13]: 85.6%
viability, T/C [14]: 83%
viability, T/C [15]: 56.4%
viability, T/C [16]: 52.9%
viability, T/C [33]: 98.7%
viability, T/C [34]: 110%
viability, T/C [17]: 81.8%
viability, T/C [18]: 69.6%
viability, T/C [19]: 59.9%
viability, T/C [20]: 40.7%
viability, T/C [35]: 90.8%
viability, T/C [36]: 86.5%
viability, T/C [21]: 77.4%
viability, T/C [22]: 67.9%
viability, T/C [23]: 61.2%
viability, T/C [24]: 52.5%

Cn1ncnc1[C@H]1c2n[nH]c(=O)c3cc(F)cc(c23)N[C@@H]1c1ccc(F)cc1 + Cc1cccc(N(C)C(=O)C2C(O)CCN2c2nc(C)cc(C(F)(F)F)c2C#N)c1
IC50 (second compound 0.0316 µM): > 0.1 µM
IC50 (second compound 0.1 µM): > 0.1 µM
IC50 (second compound 0.316 µM): > 0.1 µM
IC50 (second compound 1 µM): > 0.1 µM
IC50 (second compound 3.16 µM): > 0.1 µM
IC50 (second compound 10 µM): > 0.1 µM
viability, T/C (second compound 0.0316 µM, first compound 0.000316 µM): 101%
viability, T/C (second compound 0.0316 µM, first compound 0.001 µM): 115%
viability, T/C [25]: 114%
viability, T/C [26]: 125%
viability, T/C [1]: 98.2%
viability, T/C [2]: 97.3%
viability, T/C (second compound 0.1 µM, first compound 0.000316 µM): 110%
viability, T/C (second compound 0.1 µM, first compound 0.001 µM): 116%
viability, T/C [27]: 120%
viability, T/C [28]: 80%
viability, T/C [5]: 101%
viability, T/C [6]: 103%
viability, T/C (second compound 0.316 µM, first compound 0.000316 µM): 97.5%
viability, T/C (second compound 0.316 µM, first compound 0.001 µM): 102%
viability, T/C [29]: 95.8%
viability, T/C [30]: 86.2%
viability, T/C [9]: 101%
viability, T/C [10]: 99.8%
viability, T/C (second compound 1 µM, first compound 0.000316 µM): 85.1%
viability, T/C (second compound 1 µM, first compound 0.001 µM): 96.5%
viability, T/C [31]: 80.9%
viability, T/C [32]: 82%
viability, T/C [13]: 103%
viability, T/C [14]: 95.2%
viability, T/C (second compound 3.16 µM, first compound 0.000316 µM): 96.4%
viability, T/C (second compound 3.16 µM, first compound 0.001 µM): 116%
viability, T/C [33]: 92.7%
viability, T/C [34]: 108%
viability, T/C [17]: 96.2%
viability, T/C [18]: 97.1%
viability, T/C (second compound 10 µM, first compound 0.000316 µM): 91%
viability, T/C (second compound 10 µM, first compound 0.001 µM): 115%
viability, T/C [35]: 108%
viability, T/C [36]: 112%
viability, T/C [21]: 110%
viability, T/C [22]: 104%
